Measured values: ChEMBL document CHEMBL4346752, “Discovery and evaluation of novel nitrodihydroimidazooxazoles as promising anti-tuberculosis agents” (Bioorg Med Chem Lett, 2019)
≈ marks a conversion by molar mass, not a printed value.

Tests used:
[1] = Apparent permeability across apical to basolateral side in MDCK cells at […] incubated for 60 mins by HPLC analysis; format: ADME, cell-based, Canis lupus familiaris; conditions: dog; for Papp A→B at 1 h: MDCK
[2] = Apparent permeability across basolateral to apical side in MDCK cells at […] incubated for 60 mins by HPLC analysis; format: ADME, cell-based, Canis lupus familiaris; conditions: dog; for Papp B→A at 1 h: MDCK
[3] = system: Mycobacterium tuberculosis; assay: Antimycobacterial activity against Mycobacterium tuberculosis H37Rv assessed as reduction in bacterial cell growth incubated for 8 days measured under aerobic MABA conditions by alamar blue staining based assay; format: functional; conditions: 192 h
[4] = system: Mycobacterium tuberculosis; assay: Antimycobacterial activity against Mycobacterium tuberculosis H37Rv assessed as reduction in bacterial cell growth incubated for 11 days measured under anaerobic LORA condition by luminescence assay; format: functional; conditions: 264 h
[5] = Cytotoxicity against African green monkey Vero cells assessed as reduction in cell viability incubated for 72 hrs by MTT assay; format: cell-based; conditions: chlorocebus sabaeus
[6] = Solubility of the compound in water at pH 2 by HPLC analysis; format: physicochemical
[7] = Solubility of the compound in water at pH 6.5 by HPLC analysis; format: physicochemical
[8] = Efflux ratio of apparent permeability across basolateral to apical over apical to basolateral side in MDCK cells at […] incubated for 60 mins by HPLC analysis; format: ADME, cell-based, Canis lupus familiaris; conditions: dog

## C[C@]1(COc2ccc(N3CCC(Oc4ccc(OC(F)(F)F)cc4)CC3)cc2)Cn2cc([N+](=O)[O-])nc2O1
[1]
  Papp A→B at 1 h: 0.09 ×10⁻⁶ cm/s
[2]
  Papp B→A at 1 h: 0.17 ×10⁻⁶ cm/s
[3]
  MIC: < 0.031 µg/mL
[4]
  MIC: 1.23 µg/mL (≈ 2.3 µM)

## C[C@]1(CN2CCc3nc(-c4cc(F)ccc4Cl)ccc3C2)Cn2cc([N+](=O)[O-])nc2O1
[5]
  CC50 at 72 h: > 32 µg/mL
[3]
  MIC: 0.15 µg/mL (≈ 0.338 µM)
[4]
  MIC: 4.28 µg/mL (≈ 9.64 µM)

## C[C@]1(CN2CCc3nc(-c4cc(F)cc(F)c4)ccc3C2)Cn2cc([N+](=O)[O-])nc2O1
[5]
  CC50 at 72 h: > 32 µg/mL
[3]
  MIC: 0.03 µg/mL (≈ 0.0702 µM)
[4]
  MIC: 1.64 µg/mL (≈ 3.84 µM)

## C[C@]1(CN2CCc3nc(-c4ccc(F)c(Cl)c4)ccc3C2)Cn2cc([N+](=O)[O-])nc2O1
[5]
  CC50 at 72 h: > 32 µg/mL
[3]
  MIC: 0.03 µg/mL (≈ 0.0676 µM)
[4]
  MIC: 3.82 µg/mL (≈ 8.61 µM)

## C[C@]1(CN2CCc3oc(-c4ccc(F)cc4)nc3C2)Cn2cc([N+](=O)[O-])nc2O1
[5]
  CC50 at 72 h: > 32 µg/mL

## C[C@]1(CN2CCc3nc(-c4ccccc4)ccc3C2)Cn2cc([N+](=O)[O-])nc2O1
[6]
  solubility: 130 µM (≈ 50.7 µg/mL)
[7]
  solubility: 3.35 µM (≈ 1.31 µg/mL)
[8]; MDCK
  efflux ratio at 1 h: 1.35
[1]
  Papp A→B at 1 h: 16.8 ×10⁻⁶ cm/s
[5]
  CC50 at 72 h: > 32 µg/mL
[2]
  Papp B→A at 1 h: 22.7 ×10⁻⁶ cm/s

## C[C@]1(CN2CCc3nc(-c4ccccc4F)ccc3C2)Cn2cc([N+](=O)[O-])nc2O1
[5]
  CC50 at 72 h: > 32 µg/mL
[3]
  MIC: 0.05 µg/mL (≈ 0.122 µM)
[4]
  MIC: 5 µg/mL (≈ 12.2 µM)

## C[C@]1(CN2CCc3nc(-c4ccc(Cl)cc4F)ccc3C2)Cn2cc([N+](=O)[O-])nc2O1
[5]
  CC50 at 72 h: > 32 µg/mL
[3]
  MIC: 0.03 µg/mL (≈ 0.0676 µM)
[4]
  MIC: 5.28 µg/mL (≈ 11.9 µM)

## C[C@]1(CN2CCc3nc(-c4cc(F)ccc4F)ccc3C2)Cn2cc([N+](=O)[O-])nc2O1
[5]
  CC50 at 72 h: > 32 µg/mL
[3]
  MIC: 0.05 µg/mL (≈ 0.117 µM)
[4]
  MIC: 5.14 µg/mL (≈ 12 µM)

## C[C@]1(CN2CCc3nc(-c4ccc(F)cc4)ccc3C2)Cn2cc([N+](=O)[O-])nc2O1
[6]
  solubility: 143 µM (≈ 58.7 µg/mL)
[7]
  solubility: 9.41 µM (≈ 3.85 µg/mL)
[8]; mdck, 1 h, 100000 µM
  Ratio: 1.09
[1]; mdck, 1 h, 100000 µM
  Papp: 20.92 ×10⁻⁶ cm/s
[5]
  CC50 at 72 h: > 32 µg/mL
[2]; mdck, 1 h, 100000 µM
  Papp: 19.29 ×10⁻⁶ cm/s
[3]
  MIC: < 0.031 µg/mL
[4]
  MIC: 4.83 µg/mL (≈ 11.8 µM)

## C[C@]1(CN2CCc3nc(-c4cc(F)c(F)c(F)c4)ccc3C2)Cn2cc([N+](=O)[O-])nc2O1
[6]
  solubility: > 200 µM
[7]
  solubility: < 1 µM
[5]
  CC50 at 72 h: > 32 µg/mL
[3]
  MIC: 0.08 µg/mL (≈ 0.18 µM)
[4]
  MIC: 0.76 µg/mL (≈ 1.71 µM)

## C[C@]1(CN2CCc3nc(-c4cc(Cl)ccc4F)ccc3C2)Cn2cc([N+](=O)[O-])nc2O1
[5]
  CC50 at 72 h: > 32 µg/mL
[3]
  MIC: 0.04 µg/mL (≈ 0.0901 µM)
[4]
  MIC: 8.79 µg/mL (≈ 19.8 µM)

## C[C@]1(CN2CCc3nc(-c4ccc(F)c(F)c4)oc3C2)Cn2cc([N+](=O)[O-])nc2O1
[5]
  CC50 at 72 h: > 32 µg/mL

## C[C@]1(CN2CCc3nc(-c4ccc(Cl)c(F)c4)ccc3C2)Cn2cc([N+](=O)[O-])nc2O1
[5]
  CC50 at 72 h: > 32 µg/mL
[3]
  MIC: 0.03 µg/mL (≈ 0.0676 µM)
[4]
  MIC: 3.79 µg/mL (≈ 8.54 µM)

## C[C@]1(CN2CCc3nc(-c4ccc(F)cc4F)ccc3C2)Cn2cc([N+](=O)[O-])nc2O1
[5]
  CC50 at 72 h: 12.5 µg/mL (≈ 29.2 µM)
[3]
  MIC: 0.03 µg/mL (≈ 0.0702 µM)
[4]
  MIC: > 8 µg/mL

## C[C@]1(CN2CCc3nc(-c4cc(F)cc(Cl)c4)ccc3C2)Cn2cc([N+](=O)[O-])nc2O1
[5]
  CC50 at 72 h: > 32 µg/mL
[3]
  MIC: 0.03 µg/mL (≈ 0.0676 µM)
[4]
  MIC: 6.41 µg/mL (≈ 14.4 µM)

## C[C@]1(CN2CCc3nc(-c4cccc(Cl)c4F)ccc3C2)Cn2cc([N+](=O)[O-])nc2O1
[5]
  CC50 at 72 h: > 32 µg/mL
[3]
  MIC: 0.03 µg/mL (≈ 0.0676 µM)
[4]
  MIC: 5.71 µg/mL (≈ 12.9 µM)

## C[C@]1(CN2CCc3nc(-c4ccc(F)cc4)oc3C2)Cn2cc([N+](=O)[O-])nc2O1
[5]
  CC50 at 72 h: > 32 µg/mL

## C[C@]1(CN2CCc3nc(-c4cccc(F)c4)ccc3C2)Cn2cc([N+](=O)[O-])nc2O1
[5]
  CC50 at 72 h: > 32 µg/mL
[3]
  MIC: 0.02 µg/mL (≈ 0.0488 µM)
[4]
  MIC: 6.5 µg/mL (≈ 15.9 µM)

## C[C@]1(CN2CCc3nc(-c4cccc(F)c4F)ccc3C2)Cn2cc([N+](=O)[O-])nc2O1
[5]
  CC50 at 72 h: > 32 µg/mL
[3]
  MIC: 0.03 µg/mL (≈ 0.0702 µM)
[4]
  MIC: 3.72 µg/mL (≈ 8.7 µM)

## C[C@]1(CN2CCc3nc(-c4ccc(C(F)(F)F)cc4)ccc3C2)Cn2cc([N+](=O)[O-])nc2O1
[5]
  CC50 at 72 h: > 32 µg/mL
[3]
  MIC: 0.03 µg/mL (≈ 0.0653 µM)
[4]
  MIC: > 8 µg/mL

## C[C@]1(CN2CCc3nc(C4CCCCC4)ccc3C2)Cn2cc([N+](=O)[O-])nc2O1
[3]
  MIC: 0.03 µg/mL (≈ 0.0755 µM)
[4]
  MIC: 7.21 µg/mL (≈ 18.1 µM)

## C[C@]1(CN2CCc3nc(-c4ccc(F)c(F)c4)ccc3C2)Cn2cc([N+](=O)[O-])nc2O1
[5]
  CC50 at 72 h: > 32 µg/mL
[3]
  MIC: 0.03 µg/mL (≈ 0.0702 µM)
[4]
  MIC: 3.88 µg/mL (≈ 9.08 µM)

## C[C@]1(CN2CCc3nc(-c4ccc(F)cc4)sc3C2)Cn2cc([N+](=O)[O-])nc2O1
[5]
  CC50 at 72 h: > 32 µg/mL

## CO[C@H]1/C=C/O[C@@]2(C)Oc3c(C)c(O)c4c(O)c(c(/C=N/N5CCN(C)CC5)c(O)c4c3C2=O)NC(=O)/C(C)=C\C=C\[C@H](C)[C@H](O)[C@@H](C)[C@@H](O)[C@@H](C)[C@H](OC(C)=O)[C@@H]1C [RIFAMPIN]
[5]
  CC50 at 72 h: > 32 µg/mL
[3]
  MIC: 0.1 µg/mL (≈ 0.122 µM)
[4]
  MIC: 0.72 µg/mL (≈ 0.875 µM)
